Experimental data reported in patent US12459921B2, “Isoindoline compound, preparation method, pharmaceutical composition and use thereof” (SHANGHAI INSTITUTE OF MATERIA MEDICA, CHINESE ACADEMY OF …, priority 2018, dated 2025).

System: MM.1S cells
Assay: Inhibitory effect on the proliferation of MM.1S, MTS cell viability test
Type: cell-based
Details: Homo sapiens, MM1.S, 168 h, multiple myeloma MM.1S cells, 7 days incubation, read-out: Tumor cell inhibitory activity
How it was run: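 MM.1S cells (20,000/well, RPMI 1640 with 10% FBS) exposed to 5-fold compound dilutions at 0.2% DMSO for 7 days at 37° C, 5% CO2. MTS added for 3-4 h; OD490-OD690 gave inhibition versus DMSO, IC50 fitted, mean of three experiments.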

| Structure (SMILES) | IC50 [nM] |
| --- | --- |
| O=C1CCC(N2Cc3c(CCCCCN4CCC5(CC4)OC(=O)Nc4ccccc45)cccc3C2=O)C(=O)N1 (centres unmarked) [Example 125, 3-(1-oxo-4-(5-(2-oxo-1,2-dihydrospiro[benzo[d][1,3]oxazine-4,4′-piperidine]-1′-)pentyl)isoindoline-2-)piperidine-2,6-dione] | 100 to 1000 |
| O=C1CCC(N2Cc3c(OCCCCN4CCC5(CC4)OCc4ccccc45)cccc3C2=O)C(=O)N1 (centres unmarked) [Example 126, 3-(4-(4-(2H-spiro[benzofuran-3,4′-piperidine]-1′-)butoxy)-1-oxoisoindoline-2-)piperidine-2,6-dione] | < 100 |
| O=C1CCC(N2Cc3c(CCCCCN4CCC5(CC4)OCc4ccc(Cl)cc45)cccc3C2=O)C(=O)N1 (centres unmarked) [Example 127] | 100 to 1000 |
| O=C1CCC(N2Cc3c(OCCCCN4CCC5(CC4)OCc4ccc(F)cc45)cccc3C2=O)C(=O)N1 (centres unmarked) [Example 128, 3-(4-(4-(6-fluoro-3H-spiro[isobenzofuran-1,4′-piperidine]-1′-)butoxy)-1-oxoisoindoline-2-)piperidine-2,6-dione] | < 100 |
| O=C1CCC(N2Cc3c(CCCCCN4CCC5(CC4)OC(=O)c4cc(Cl)ccc45)cccc3C2=O)C(=O)N1 (centres unmarked) [Example 129, 3-(4-(5-(5-chloro-3-oxo-3H-spiro[isobenzofuran-1,4′-piperidine]-1′-)pentyl)-1-oxoisoindoline-2-)piperidine-2,6-dione] | 100 to 1000 |
| Cc1ccc2c(c1)C1(CCN(CCCCOc3cccc4c3CN(C3CCC(=O)NC3=O)C4=O)CC1)OC2 (centres unmarked) [Example 130, 3-(4-(4-(6-methyl-3H-spiro[isobenzofuran-1,4′-piperidine]-1′-)butoxy)-1-oxoisoindoline-2-)piperidine-2,6-dione] | < 100 |
| O=C1CCC(N2Cc3c(CCCCCN4CCC5(CC4)OC(=O)Nc4ncccc45)cccc3C2=O)C(=O)N1 (centres unmarked) [Example 131, 3-(1-oxo-4-(5-(2′-oxo-1′,2′-dihydrospiro[piperidine-4,4′-pyrido[2,3-d][1,3)oxazine)-1-)pentyl)isoindoline-2-)piperidine-2,6-dione] | 100 to 1000 |
| O=C1CCC(N2Cc3c(OCCCCCN4CCC5(CC4)OCc4ccc(Cl)cc45)cccc3C2=O)C(=O)N1 (centres unmarked) [Example 132, 3-(4-((5-(6-chloro-3H-spiro[isobenzofuran-1,4-piperidine]-1-)pentyl)oxy)-1-oxoisoindoline-2-)piperidine-2,6-dione] | < 100 |
| O=C1CCC(N2Cc3c(CCCCCN4CCC5(CC4)C(=O)Nc4ccc(Cl)cc45)cccc3C2=O)C(=O)N1 (centres unmarked) [Example 133, 3-(4-(5-(5-chloro-2-oxospiro[indoline-3,4′-piperidine]-1′-)pentyl)-1-oxoisoindoline-2-)piperidine-2,6-dione] | < 100 |
| COc1ccc2c(c1)C1(CCN(CCCCCc3cccc4c3CN(C3CCC(=O)NC3=O)C4=O)CC1)C(=O)N2 (centres unmarked) [Example 135, 3-(4-(5-(5-methoxy-2-oxospiro[indoline-3,4′-piperidine]-1′-)pentyl)-1-oxoisoindoline-2-)piperidine-2,6-dione] | 100 to 1000 |
| O=C1CCC(N2Cc3c(CCCCCN4CCC5(CC4)OCCc4ccccc45)cccc3C2=O)C(=O)N1 (centres unmarked) [Example 137, 3-(1-oxo-4-(5-(spiro[isochroman-1,4′-piperidine]-1′-)pentyl)isoindoline-2-)piperidine-2,6-dione] | 100 to 1000 |
| O=C1CCC(N2Cc3c(OCCCN4CCC5(CC4)OCc4ccc(Cl)cc45)cccc3C2=O)C(=O)N1 (centres unmarked) [Example 138, 3-(4-(3-(6-chloro-3H-spiro[isobenzofuran-1,4′-piperidine]-1′-)propoxy)-1-oxoisoindoline-2-)piperidine-2,6-dione] | < 100 |
| O=C1CCC(N2Cc3c(CCCCCN4CCC5(C4)C(=O)Nc4ccccc45)cccc3C2=O)C(=O)N1 (centres unmarked) [Example 139] | 100 to 1000 |
| Cc1ccc2c(c1)C1(CCN(CCCOc3cccc4c3CN(C3CCC(=O)NC3=O)C4=O)CC1)OC2 (centres unmarked) [Example 140, 3-(4-(3-(6-methyl-3H-spiro[isobenzofuran-1,4′-piperidine]-1′-)propoxy)-1-oxoisoindoline-2-)piperidine-2,6-dione] | < 100 |
| O=C1CCC(N2Cc3c(CCCCCN4CCC5(C=Cc6ccccc65)CC4)cccc3C2=O)C(=O)N1 (centres unmarked) [Example 141, 3-(1-oxo-4-(5-(spiro[indene-1,4′-piperidine]-1′-)pentyl)isoindoline-2-)piperidine-2,6-dione] | 100 to 1000 |
| O=C1CCC(N2Cc3c(OCCCN4CCC5(CC4)OCc4ccc(F)cc45)cccc3C2=O)C(=O)N1 (centres unmarked) [Example 142, 3-(4-(3-(6-fluoro-3H-spiro[isobenzofuran-1,4′-piperidine]-1′-)propoxy)-1-oxoisoindoline-2-)piperidine-2,6-dione] | 100 to 1000 |
| O=C1CCC(N2Cc3c(OCCCCCN4CCC5(CC4)OCc4ccc(F)cc45)cccc3C2=O)C(=O)N1 (centres unmarked) [Example 144, 3-(4-((5-(6-fluoro-3H-spiro[isobenzofuran-1,4-piperidine]-1-)pentyl)oxy)-1-oxoisoindoline-2-)piperidine-2,6-dione] | < 100 |
| O=C1CCC(N2Cc3c(CCCCCN4CCC5(CC4)COc4ccccc45)cccc3C2=O)C(=O)N1 (centres unmarked) [Example 145] | 100 to 1000 |
| Cc1ccc2c(c1)C1(CCN(CCCCCOc3cccc4c3CN(C3CCC(=O)NC3=O)C4=O)CC1)OC2 (centres unmarked) [Example 146, 3-(4-((5-(6-methyl-3H-spiro[isobenzofuran-1,4′-piperidine]-1′-)pentyl)oxy)-1-oxoisoindoline-2-)piperidine-2,6-dione] | < 100 |
| O=C1CCC(N2Cc3c(CCCCCN4CCC5(CC4)C(=O)NCN5c4ccccc4)cccc3C2=O)C(=O)N1 (centres unmarked) [Example 147, 3-(1-oxo-4-(5-(4-oxo-1-phenyl-1,3,8-triazaspiro[4.5]decane-8-)pentyl)isoindoline-2-)piperidine-2,6-dione] | 100 to 1000 |
| O=C1CCC(N2Cc3c(OCCCCCCN4CCC5(CC4)COc4ccccc45)cccc3C2=O)C(=O)N1 (centres unmarked) [Example 148, 3-(4-((6-(2H-spiro[benzofuran-3,4′-piperidine]-1′-)hexyl)oxy)-1-oxoisoindoline-2-)piperidine-2,6-dione] | < 100 |
| O=C1CCC(N2Cc3c(CCCCN4CCC5(CC4)OCc4ccccc45)cccc3C2=O)C(=O)N1 (centres unmarked) [Example 149, 3-(4-(4-(3H-spiro[isobenzofuran-1,4′-piperidine]-1′-)butyl)-1-oxoisoindoline-2-)piperidine-2,6-dione] | 100 to 1000 |
| O=C1CCC(N2Cc3c(OCCCCCCN4CCC5(CC4)OCc4ccc(Cl)cc45)cccc3C2=O)C(=O)N1 (centres unmarked) [Example 150, 3-(4-((6-(6-chloro-3H-spiro[isobenzofuran-1,4′-piperidine]-1′-)hexyl)oxy)-1-oxoisoindoline-2-)piperidine-2,6-dione] | < 100 |
| O=C1CCC(N2Cc3c(CCCCN4CCC5(CC4)OCc4ccc(Cl)cc45)cccc3C2=O)C(=O)N1 (centres unmarked) [Example 151, 3-(4-(4-(6-chloro-3H-spiro[isobenzofuran-1,4-piperidine]-1-)butyl)-1-oxoisoindoline-2-)piperidine-2,6-dione] | 100 to 1000 |
| O=C1CCC(N2Cc3c(OCCCCC(=O)N4CCC5(CC4)OCc4ccc(Cl)cc45)cccc3C2=O)C(=O)N1 (centres unmarked) [Example 152, 3-(4-((5-(6-chloro-3H-spiro[isobenzofuran-1,4′-piperidine]-1′-)-5-oxopentyl)oxy)-1-oxoisoindoline-2-)piperidine-2,6-dione] | < 100 |
| O=C1CCC(N2Cc3c(OCCCC(=O)N4CCC5(CC4)OCc4ccc(Cl)cc45)cccc3C2=O)C(=O)N1 (centres unmarked) [Example 153] | 100 to 1000 |
